US10898613B2, “Hyaluronic acid gel with a divalent zinc cation” (Nestlé Skin Health SA, priority 2016, dated 2021)

Assay: Rheology (elastic modulus G′ within the LVR) of HA gel formulations after autoclaving
Assay type: physicochemical
Settings: after autoclaving (F0~19); 1 mM Zn salt, HA 20 mg/mL
Protocol: The rheological properties of the formulations were analyzed using an Ahres G2 reometer (measure system PP 40, gap 1.00 mm). Initially a strain sweep was made to find the linear viscoelastic region (LVR) and then the viscoelastic properties were measured within the LVR.

Compound | Effect of Zn on G′ of the gel versus reference swelled in buffer only
[Cl-].[Cl-].[Zn+2] [zinc chloride] | stabilizing effect
zinc gluconate | stabilizing effect
O=C([O-])CC(O)(CC(=O)[O-])C(=O)[O-].O=C([O-])CC(O)(CC(=O)[O-])C(=O)[O-].[Zn+2].[Zn+2].[Zn+2] [zinc citrate] | stabilizing effect

Assay: Zinc release from gels, USP-paddle apparatus with gel containers, Zn content by ICP
Assay type: physicochemical
Settings: zinc released from HA gels of Example 4 with 1 mM zinc salt; 600 ml release medium, 30 rpm, 37° C.
Protocol: The zinc release from the gels was measured by the USP-paddle apparatus using special gel containers in which the gel was placed. A gel containing 1 mM ZnCl2 was manufactured according to Example 1. The gel was filled into 7 gel containers with a fixed volume of 1 ml. The geometry of the filled gel was a cylinder […] in diameter and 3 mm deep. The gels were covered by a mesh-size plastic net (PA80 m=200 mesh, AB Derma) and a coarse stainless steel net, care was taken to assure that no air was trapped between the gel and the plastic net.
Each gel container was immersed in 600 ml thermostated release medium, stirred at 30 rpm and maintained at 37° C. using a Distek Evolution 6100 (North Brunswick, N.J.). At predetermined time points, gel containers were removed and the Zn content in the container was determined using ICP.
Gels prepared according to example 4 containing zinc chloride (1 mM), zinc gluconate (1 mM) and zinc citrate (1 mM) respectively were analyzed as described in Example 7.

Compound | time for 25% released
[Cl-].[Cl-].[Zn+2] [zinc chloride] | ~75 h
zinc gluconate | ~24 h
O=C([O-])CC(O)(CC(=O)[O-])C(=O)[O-].O=C([O-])CC(O)(CC(=O)[O-])C(=O)[O-].[Zn+2].[Zn+2].[Zn+2] [zinc citrate] | ~3 h
